Source: ChEMBL document CHEMBL4411297, “Discovery, synthesis and anti-atherosclerotic activities of a novel selective sphingomyelin synthase 2 inhibitor” (Eur J Med Chem, 2019)
The source made the active and inactive calls. The rule behind the calls is not given here.

tested on: not listed separately; experiment: Inhibition of SMS (unknown origin); set-up: species or system Homo sapiens

| IC50 [µM] | Structure (SMILES) |
| --- | --- |
| 177 to 600 | S=C(S)O[C@@H]1C[C@H]2C[C@@H]1[C@H]1CCC[C@@H]21 |

biological target: T1, Phosphatidylcholine:ceramide cholinephosphotransferase 2 (Homo sapiens) (UniProt Q8NHU3); experiment: Inhibition of SMS2 (unknown origin) over-expressed in H5 insect cell lysate at 100 uM using C6-NBD-Ceramide and DMPC as substrates preincubated for 30 mins followed by substrate addition and measured after 2 hrs by TLC or HPLC method relative to control; type: subcellular
T1 sequence (whole entry): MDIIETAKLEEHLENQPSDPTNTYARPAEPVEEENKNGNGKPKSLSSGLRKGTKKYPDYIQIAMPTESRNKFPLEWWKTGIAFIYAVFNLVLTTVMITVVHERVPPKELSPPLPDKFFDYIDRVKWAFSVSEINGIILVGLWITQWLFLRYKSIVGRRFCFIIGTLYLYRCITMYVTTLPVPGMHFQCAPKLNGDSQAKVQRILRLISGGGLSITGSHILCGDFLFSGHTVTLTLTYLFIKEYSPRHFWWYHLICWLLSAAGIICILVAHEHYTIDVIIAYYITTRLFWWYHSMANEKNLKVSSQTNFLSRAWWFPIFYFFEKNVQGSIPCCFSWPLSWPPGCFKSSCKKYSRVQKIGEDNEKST

| inhibition | Structure (SMILES) |
| --- | --- |
| inactive | c1ccc(COc2ccccc2C(Nc2ccccc2)c2nnn[nH]2)cc1 (configuration not stated) |
| 69% | O=C(Nc1ccccc1)c1ccccc1OCc1ccccc1 |
| 58% | CC(C#N)(Nc1ccccc1)c1ccccc1OCc1ccccc1 (configuration not stated) |
| inactive | c1ccc(COc2ccccc2CNc2ccccc2)cc1 |
| 75% | N#CC(Nc1ccccc1)c1ccccc1OCc1ccccc1 (configuration not stated) |
| 39% | NC(=O)C(Nc1ccccc1)c1ccccc1OCc1ccccc1 (configuration not stated) |

biological target: T2, Phosphatidylcholine:ceramide cholinephosphotransferase 2 (Homo sapiens, UniProt Q8NHU3); experiment: Inhibition of SMS2 (unknown origin) over-expressed in H5 insect cell lysate using C6-NBD-Ceramide and DMPC as substrates preincubated for 30 mins followed by substrate addition and measured after 2 hrs by TLC or HPLC method; type: subcellular
T2 sequence (Q8NHU3 whole entry): T1 sequence (whole entry)

| Structure (SMILES) | IC50 [µM] |
| --- | --- |
| O=C(NC1CCCCC1)c1ccccc1OCc1ccccc1 | 43.4 |
| N#Cc1cccc(COc2ccccc2C(=O)Nc2cccnc2)c1 | 60.7 |
| O=C(Nc1cccnc1)c1ccccc1OCc1ccccc1OCCCCCCCl | 0.47 |
| O=C(Nc1cccnc1)c1ccccc1OCc1ccccc1OCCCCCl | 1.3 |
| O=C(Nc1ccccc1)c1ccccc1OCc1ccccc1 | 13.4 |
| CCCCCCOc1ccc(Cl)cc1COc1ccccc1C(=O)Nc1cccnc1 | 0.52 |
| CC(C#N)(Nc1ccccc1)c1ccccc1OCc1ccccc1 (configuration not stated) | 34 |
| O=C(NCc1ccco1)c1ccccc1OCc1ccccc1 | 49 |
| O=C(NC1CCCNC1)c1ccccc1OCc1ccccc1Cl (configuration not stated) | > 100 |
| CCCCCCCOc1ccc(Cl)cc1COc1ccccc1C(=O)Nc1cccnc1 | 0.43 |
| O=C(Nc1cccnc1)c1ccccc1OCc1ccccc1 | 3.2 |
| O=C(NCc1ccccc1)c1ccccc1OCc1ccccc1 | 34.2 |
| O=C(Nc1cccnc1)c1ccccc1OCc1ccccc1OCCCCCCl | 0.67 |

Second part, the molecule after the results:

| IC50 [µM] | Structure (SMILES) |
| --- | --- |
| 0.74 | Cc1ccc(F)cc1COc1ccccc1C(=O)Nc1cccnc1 |
| 0.99 | O=C(Nc1cccnc1)c1ccccc1OCc1cc(Cl)ccc1Cl |
| 0.67 | COc1ccc(Cl)cc1COc1ccccc1C(=O)Nc1cccnc1 |
| 2.8 | COc1ccc(OC)c(COc2ccccc2C(=O)Nc2cccnc2)c1 |
| 3.8 | Cc1c(Cl)cccc1COc1ccccc1C(=O)Nc1cccnc1 |
| 0.69 | O=C(Nc1cccnc1)c1ccccc1OCc1c(Cl)cccc1Cl |
| 0.89 | Cc1cccc(C)c1COc1ccccc1C(=O)Nc1cccnc1 |
| 0.74 | O=C(Nc1cccnc1)c1ccccc1OCc1cc(F)ccc1Cl |
| 1.1 | Cc1ccc(Cl)cc1COc1ccccc1C(=O)Nc1cccnc1 |
| 1.1 | O=C(Nc1cccnc1)c1ccccc1OCc1ccccc1Cl |
| 2.1 | O=C(Nc1cccnc1)c1ccccc1OCc1ccccc1C(F)(F)F |
| 31.8 | N#Cc1ccccc1COc1ccccc1C(=O)Nc1cccnc1 |
